Common to all, as to assay: relative viability (nuclei count vs DMSO), 5 days (fraction); higher = more cells survive
Compound in assay [1]: C(C(=O)C(=O)O)Br [Bromopyruvate] + C[C@@H](Oc1cc(-c2cnn(C3CCNCC3)c2)cnc1N)c1c(Cl)ccc(F)c1Cl [Crizotinib] (partner 1 µM)
The essentials:
(§1)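 One day after seeding in 1536-well plates, lung cancer cell lines were dosed by pin tool. Dosing was either single-drug or a fixed anchor-drug dose plus five library-drug doses (not always all listed) in √10 steps. After 5 days, nuclei were stained in one fix-and-stain step and counted on 4× images, and relative viability is the nuclei count of treated wells over that of vehicle wells, given as the median of duplicate plates.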

Compound in assay [2]: CC(O)(CS(=O)(=O)c1ccc(F)cc1)C(=O)Nc1ccc(C#N)c(C(F)(F)F)c1 [Bicalutamide] + COc1cccc2cc(-c3nc([C@H]4CC[C@H](C(=O)O)CC4)n4ncnc(N)c34)[nH]c12 [OSI-027] (partner 0.5 µM)
The essentials:
as §1

Compound in assay [3]: C(C(=O)C(=O)O)Br [Bromopyruvate] + Nc1nc2[nH]cc(CCc3ccc(C(=O)N[C@@H](CCC(=O)O)C(=O)O)cc3)c2c(=O)[nH]1 [Pemetrexed] (partner 0.2 µM)
In short, it runs like this: as §1

Compound in assay [4]: C(C(=O)C(=O)O)Br [Bromopyruvate] + CCNC(=O)c1noc(-c2cc(C(C)C)c(O)cc2O)c1-c1ccc(CN2CCOCC2)cc1 [Luminespib] (partner 0.01 µM)
The essentials: as §1

For RERF-LC-KJ, the relative viability in assay [1] (first compound 1 µM) amounted to 0.771; in assay [1] (first compound 3.162 µM), 0.82; in assay [1] (first compound 10 µM), 0.855; in assay [1] (first compound 31.62 µM), 0.813; in assay [1] (first compound 100 µM), 0.891; in assay [2] (first compound 0.08 µM), 0.679. Further, the relative viability in assay [2] (first compound 0.253 µM) was found to be 0.56; in assay [2] (first compound 0.8 µM) it was 0.563; in assay [2] (first compound 2.53 µM) it was 0.543; in assay [3] (first compound 1 µM), 0.49; in assay [3] (first compound 3.162 µM) it was 0.507; in assay [3] (first compound 10 µM), 0.457. Moreover, the relative viability in assay [3] (first compound 31.62 µM) was 0.49; in assay [3] (first compound 100 µM) it was 0.468; in assay [4] (first compound 1 µM) it was 1.28; in assay [4] (first compound 3.162 µM), 1.32; in assay [4] (first compound 10 µM), 1.2; in assay [4] (first compound 31.62 µM), 1.21. Moreover, in assay [4] (first compound 100 µM), the relative viability amounted to 1.23.

Regarding SK-LU-1, the relative viability in assay [1] (first compound 1 µM) was 1.05; in assay [1] (first compound 3.162 µM), 0.99; in assay [1] (first compound 10 µM) it was 0.831; in assay [1] (first compound 31.62 µM) it was 0.856; in assay [1] (first compound 100 µM), 0.794; in assay [2] (first compound 0.08 µM), 0.371. Also, the relative viability in assay [2] (first compound 0.253 µM) came out at 0.39; in assay [2] (first compound 0.8 µM) it was 0.358; in assay [2] (first compound 2.53 µM) it was 0.276; in assay [3] (first compound 1 µM), 0.998; in assay [3] (first compound 3.162 µM) it was 0.961; in assay [3] (first compound 10 µM), 1.02. Further, the relative viability worked out at 0.886 in assay [3] (first compound 31.62 µM); 0.874 in assay [3] (first compound 100 µM); 0.213 in assay [4] (first compound 1 µM); 0.195 in assay [4] (first compound 3.162 µM); 0.208 in assay [4] (first compound 10 µM); 0.194 in assay [4] (first compound 31.62 µM). In addition, in assay [4] (first compound 100 µM), the relative viability was 0.215.

Take SK-MES-1: the relative viability came to 0.974 in assay [1] (first compound 1 µM); 0.952 in assay [1] (first compound 3.162 µM); 1.02 in assay [1] (first compound 10 µM); 0.997 in assay [1] (first compound 31.62 µM); 1.05 in assay [1] (first compound 100 µM); 0.601 in assay [2] (first compound 0.08 µM). Moreover, the relative viability in assay [2] (first compound 0.253 µM) worked out at 0.607; in assay [2] (first compound 0.8 µM), 0.665; in assay [2] (first compound 2.53 µM), 0.491; in assay [3] (first compound 1 µM), 0.999; in assay [3] (first compound 3.162 µM) it was 0.974; in assay [3] (first compound 10 µM) it was 0.941. For the same cell line, the relative viability in assay [3] (first compound 31.62 µM) came to 0.94; in assay [3] (first compound 100 µM) it was 1.01; in assay [4] (first compound 1 µM), 0.615; in assay [4] (first compound 3.162 µM), 0.882; in assay [4] (first compound 10 µM), 0.948; in assay [4] (first compound 31.62 µM) it was 0.805. The relative viability in assay [4] (first compound 100 µM) is 0.881.

With SW 1573, the relative viability turned out to be 1.02 in assay [1] (first compound 1 µM); 0.815 in assay [1] (first compound 3.162 µM); 0.76 in assay [1] (first compound 10 µM); 0.803 in assay [1] (first compound 31.62 µM); 0.57 in assay [1] (first compound 100 µM); 0.629 in assay [2] (first compound 0.08 µM). Further, the relative viability in assay [2] (first compound 0.8 µM) came out at 0.734; in assay [2] (first compound 2.53 µM), 0.656; in assay [3] (first compound 1 µM), 0.783; in assay [3] (first compound 3.162 µM), 0.792; in assay [3] (first compound 10 µM), 0.899; in assay [3] (first compound 31.62 µM), 0.436. Further, the relative viability in assay [3] (first compound 100 µM) turned out to be 0.0549; in assay [4] (first compound 1 µM) it was 0.214; in assay [4] (first compound 3.162 µM), 0.212; in assay [4] (first compound 10 µM), 0.562; in assay [4] (first compound 31.62 µM), 0.135; in assay [4] (first compound 100 µM) it was 0.0625.

On to UMC-11, for which the relative viability was 0.727 in assay [1] (first compound 1 µM); 0.655 in assay [1] (first compound 3.162 µM); 0.505 in assay [1] (first compound 10 µM); 0.509 in assay [1] (first compound 31.62 µM); 0.52 in assay [1] (first compound 100 µM); 0.505 in assay [2] (first compound 0.08 µM). For the same cell line, the relative viability in assay [2] (first compound 0.253 µM) is 0.461; in assay [2] (first compound 0.8 µM), 0.591; in assay [2] (first compound 2.53 µM) it was 0.395; in assay [3] (first compound 1 µM), 0.801; in assay [3] (first compound 3.162 µM), 0.841; in assay [3] (first compound 10 µM) it was 0.777. Further, the relative viability turned out to be 0.708 in assay [3] (first compound 31.62 µM); 0.736 in assay [3] (first compound 100 µM); 0.959 in assay [4] (first compound 1 µM); 0.998 in assay [4] (first compound 3.162 µM); 0.987 in assay [4] (first compound 10 µM); 1.05 in assay [4] (first compound 31.62 µM). The relative viability in assay [4] (first compound 100 µM) stood at 1.06.

The record behind these values is the supplement of paper PMC10307832.
